Data taken from patent US20240226065A1, “USE OF RAGE INHIBITORS TO TREAT CANCER-RELATED COGNITIVE DECLINE” (Georgetown University, priority 2021, published 2024).

System: APOE4 mice
Assay: Barnes maze (spatial learning and memory) after doxorubicin treatment in APOE4 mice
Format: in vivo, mouse
Settings: female APOE4 mice
Method: A study was conducted to evaluate the effects of RAGE inhibition on preventing CRCD. The study was performed using a mouse model of C57BL/6 J mice having the human APOE4 allele in the mouse APOE gene locus.
In the study, 24 female APOE mice were divided evenly into three treatment groups: Group 1, which received a vehicle control; Group 2, which received doxorubicin, a chemotherapy medication used to treat a variety of cancers that include breast cancer, bladder cancer, Kaposi's sarcoma, lymphoma, and acute lymphocytic leukemia; and Group 3, which received doxorubicin and FPS-ZM1, RAGE antagonist. Groups 2 and 3 were administered the doxorubicin as two doses of 5 mg/kg, separated by one week. Group 3 was administered 2 mg/kg of FPS-ZMI twice per week by intraperitoneal injection starting one week before the first administration of doxorubicin and continuing throughout the study.
Four weeks after doxorubicin treatment (or the vehicle control) was completed, mice were analyzed for hippocampal based memory via the Barnes maze (San Diego Instruments Inc., San Diego, CA). […] The apparatus was captured by overhead video and assessed using ANY-maze™ software. […]
The time to identify the correct (escape) hole on the final day is compared between groups. Primary latency, defined as the time for the mouse to make a first nose poke into the escape hole, was assessed. […]

SMILES | primary latency (latency to identify the escape hole) (Group 3: doxorubicin two doses of 5 mg/kg plus FPS-ZM1 2 mg/kg intraperitoneal twice per week from one week before doxorubicin, training day 4, p=0.12 vs Group 2) | primary latency (time to first nose poke into the escape hole) (Group 2: doxorubicin two doses of 5 mg/kg one week apart, Barnes maze training day 4, four weeks after doxorubicin, Group 1 control 24.6 seconds)
O=C(c1ccc(Cl)cc1)N(Cc1ccccc1)C1CCCCC1 [FPS-ZMI] | 28.0 s | –
COc1cccc2c1C(=O)c1c(O)c3c(c(O)c1C2=O)C[C@@](O)(C(=O)CO)C[C@@H]3O[C@H]1C[C@H](N)[C@H](O)[C@H](C)O1 [doxorubicin] | – | 58.2 s
